Results taken from PubChem BioAssay (NCI).
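Interpolation was linear, between the two tested concentrations surrounding the appropriate level; five concentrations were tested over 48 hours in 96-well plates. GI50 = concentration required for 50% inhibition of growth. The concentration for full growth arrest is given as TGI.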

Columns and labels:
Test in all cases: DTP human tumour cell line panel, 48 h
HCT-15 colon = system: HCT-15 colon
K-562 leukemia = system: K-562 leukemia
UACC-257 melanoma = system: UACC-257 melanoma
HL-60(TB) leukemia = system: HL-60(TB) leukemia
M14 melanoma = system: M14 melanoma
OVCAR-4 ovarian = system: OVCAR-4 ovarian
TK-10 renal = system: TK-10 renal
UACC-62 melanoma = system: UACC-62 melanoma
DU-145 prostate = system: DU-145 prostate
LOX IMVI melanoma = system: LOX IMVI melanoma
HS 578T breast = system: HS 578T breast
RXF 393 renal = system: RXF 393 renal
OVCAR-8 ovarian = system: OVCAR-8 ovarian
SR leukemia = system: SR leukemia
PC-3 prostate = system: PC-3 prostate
COLO 205 colon = system: COLO 205 colon
SK-MEL-2 melanoma = system: SK-MEL-2 melanoma
OVCAR-3 ovarian = system: OVCAR-3 ovarian
RPMI-8226 leukemia = system: RPMI-8226 leukemia
EKVX NSCLC = system: EKVX NSCLC
786-0 renal = system: 786-0 renal
NCI/ADR-RES ovarian = system: NCI/ADR-RES ovarian
OVCAR-5 ovarian = system: OVCAR-5 ovarian
HOP-62 NSCLC = system: HOP-62 NSCLC
SN12C renal = system: SN12C renal
SNB-75 CNS = system: SNB-75 CNS
T-47D breast = system: T-47D breast
BT-549 breast = system: BT-549 breast
SF-539 CNS = system: SF-539 CNS
A549 NSCLC = system: A549 NSCLC
UO-31 renal = system: UO-31 renal
SK-OV-3 ovarian = system: SK-OV-3 ovarian
IGROV1 ovarian = system: IGROV1 ovarian
MDA-MB-435 = system: MDA-MB-435
CAKI-1 renal = system: CAKI-1 renal
SK-MEL-28 melanoma = system: SK-MEL-28 melanoma
NCI-H460 lung = system: NCI-H460 lung
MDA-MB-231 breast = system: MDA-MB-231 breast
SF-295 CNS = system: SF-295 CNS
SF-268 CNS = system: SF-268 CNS
U251 CNS = system: U251 CNS
NCI-H522 lung = system: NCI-H522 lung
SNB-19 CNS = system: SNB-19 CNS
MOLT-4 leukemia = system: MOLT-4 leukemia
SW-620 colon = system: SW-620 colon
KM12 colon = system: KM12 colon
HCT-116 colon = system: HCT-116 colon
SK-MEL-5 melanoma = system: SK-MEL-5 melanoma
NCI-H226 lung = system: NCI-H226 lung
CCRF-CEM leukemia = system: CCRF-CEM leukemia
ACHN renal = system: ACHN renal
HT29 colon = system: HT29 colon
NCI-H23 lung = system: NCI-H23 lung
HOP-92 NSCLC = system: HOP-92 NSCLC
A498 renal = system: A498 renal
HCC-2998 colon = system: HCC-2998 colon
MALME-3M melanoma = system: MALME-3M melanoma

`CC1OC(OC2C(O)C(OCCc3ccc(O)c(O)c3)OC(CO)C2OC(=O)/C=C/c2ccc(O)c(O)c2)C(O)C(O)C1OC1OCC(O)(CO)C1O` (stereo not drawn) showed a GI50 (HCT-15 colon) greater than 100 µM, a TGI (HCT-15 colon) greater than 100 µM and a GI50 (K-562 leukemia) of 39.3 µM. The TGI (K-562 leukemia) was greater than 100 µM, the GI50 (UACC-257 melanoma) was greater than 100 µM and the TGI (UACC-257 melanoma) was greater than 100 µM. It also gave a GI50 (HL-60(TB) leukemia) of 69.8 µM, a TGI (HL-60(TB) leukemia) greater than 100 µM and a GI50 (M14 melanoma) greater than 100 µM. It also gave a TGI (M14 melanoma) greater than 100 µM, a GI50 (OVCAR-4 ovarian) greater than 100 µM and a TGI (OVCAR-4 ovarian) greater than 100 µM. For the same compound, the GI50 (TK-10 renal) was greater than 100 µM, the TGI (TK-10 renal) was greater than 100 µM and the GI50 (UACC-62 melanoma) was greater than 100 µM. The TGI (UACC-62 melanoma) was greater than 100 µM, the GI50 (DU-145 prostate) was 30.1 µM and the TGI (DU-145 prostate) was greater than 100 µM. For the same compound, the GI50 (LOX IMVI melanoma) was 17.2 µM, the TGI (LOX IMVI melanoma) was 35.3 µM and the GI50 (HS 578T breast) was greater than 100 µM. For the same compound, the TGI (HS 578T breast) was greater than 100 µM, the GI50 (RXF 393 renal) was greater than 100 µM and the TGI (RXF 393 renal) was greater than 100 µM. For the same compound, the GI50 (OVCAR-8 ovarian) was greater than 100 µM, the TGI (OVCAR-8 ovarian) was greater than 100 µM and the GI50 (SR leukemia) was 52.1 µM. The TGI (SR leukemia) was greater than 100 µM, the GI50 (PC-3 prostate) was 0.85 µM and the TGI (PC-3 prostate) was greater than 100 µM. For the same compound, the GI50 (COLO 205 colon) was greater than 100 µM, the TGI (COLO 205 colon) was greater than 100 µM and the GI50 (SK-MEL-2 melanoma) was greater than 100 µM. For the same compound, the TGI (SK-MEL-2 melanoma) was greater than 100 µM, the GI50 (OVCAR-3 ovarian) was 27.4 µM and the TGI (OVCAR-3 ovarian) was greater than 100 µM. For the same compound, the GI50 (RPMI-8226 leukemia) was 38.5 µM, the TGI (RPMI-8226 leukemia) was greater than 100 µM and the GI50 (EKVX NSCLC) was greater than 100 µM. For the same compound, the TGI (EKVX NSCLC) was greater than 100 µM, the GI50 (786-0 renal) was 44.6 µM and the TGI (786-0 renal) was greater than 100 µM. The GI50 (NCI/ADR-RES ovarian) was 89 µM, the TGI (NCI/ADR-RES ovarian) was greater than 100 µM and the GI50 (OVCAR-5 ovarian) was greater than 100 µM. For the same compound, the TGI (OVCAR-5 ovarian) was greater than 100 µM, the GI50 (HOP-62 NSCLC) was greater than 100 µM and the TGI (HOP-62 NSCLC) was greater than 100 µM. For the same compound, the GI50 (SN12C renal) was greater than 100 µM, the TGI (SN12C renal) was greater than 100 µM and the GI50 (SNB-75 CNS) was greater than 100 µM. For the same compound, the TGI (SNB-75 CNS) was greater than 100 µM, the GI50 (T-47D breast) was greater than 100 µM and the TGI (T-47D breast) was greater than 100 µM. It also gave a GI50 (BT-549 breast) of 19.8 µM, a TGI (BT-549 breast) of 42.2 µM and a GI50 (SF-539 CNS) of 24.6 µM. It also gave a TGI (SF-539 CNS) of 79 µM, a GI50 (A549 NSCLC) greater than 100 µM and a TGI (A549 NSCLC) greater than 100 µM. For the same compound, the GI50 (UO-31 renal) was greater than 100 µM, the TGI (UO-31 renal) was greater than 100 µM and the GI50 (SK-OV-3 ovarian) was greater than 100 µM. It also gave a TGI (SK-OV-3 ovarian) greater than 100 µM, a GI50 (IGROV1 ovarian) greater than 100 µM and a TGI (IGROV1 ovarian) greater than 100 µM. For the same compound, the GI50 (MDA-MB-435) was 16.1 µM, the TGI (MDA-MB-435) was 35.3 µM and the GI50 (CAKI-1 renal) was 7.71 µM. The TGI (CAKI-1 renal) was greater than 100 µM, the GI50 (SK-MEL-28 melanoma) was greater than 100 µM and the TGI (SK-MEL-28 melanoma) was greater than 100 µM. For the same compound, the GI50 (NCI-H460 lung) was 96.9 µM, the TGI (NCI-H460 lung) was greater than 100 µM and the GI50 (MDA-MB-231 breast) was greater than 100 µM. For the same compound, the TGI (MDA-MB-231 breast) was greater than 100 µM, the GI50 (SF-295 CNS) was greater than 100 µM and the TGI (SF-295 CNS) was greater than 100 µM. For the same compound, the GI50 (SF-268 CNS) was 0.0141 µM, the TGI (SF-268 CNS) was 23.7 µM and the GI50 (U251 CNS) was greater than 100 µM. The TGI (U251 CNS) was greater than 100 µM, the GI50 (NCI-H522 lung) was greater than 100 µM and the TGI (NCI-H522 lung) was greater than 100 µM. It also gave a GI50 (SNB-19 CNS) greater than 100 µM, a TGI (SNB-19 CNS) greater than 100 µM and a GI50 (MOLT-4 leukemia) of 55.6 µM. The TGI (MOLT-4 leukemia) was greater than 100 µM, the GI50 (SW-620 colon) was 25 µM and the TGI (SW-620 colon) was 57.9 µM. For the same compound, the GI50 (KM12 colon) was greater than 100 µM, the TGI (KM12 colon) was greater than 100 µM and the GI50 (HCT-116 colon) was 20.3 µM. It also gave a TGI (HCT-116 colon) of 47.7 µM, a GI50 (SK-MEL-5 melanoma) greater than 100 µM and a TGI (SK-MEL-5 melanoma) greater than 100 µM. The GI50 (NCI-H226 lung) was greater than 100 µM and the TGI (NCI-H226 lung) was greater than 100 µM.

`COC(=O)[C@](NC(=O)OCc1ccccc1)([C@@H](C)S(=O)c1ccc(C)cc1)C(F)(F)F` (stereo partly drawn) gave a TGI (HCT-15 colon) greater than 100 µM, a TGI (CCRF-CEM leukemia) of 92 µM and a TGI (ACHN renal) greater than 100 µM. For the same compound, the TGI (K-562 leukemia) was greater than 100 µM, the TGI (UACC-257 melanoma) was 86.6 µM and the TGI (HL-60(TB) leukemia) was 38.9 µM. The TGI (M14 melanoma) was greater than 100 µM, the TGI (OVCAR-4 ovarian) was 89.2 µM and the TGI (TK-10 renal) was 70 µM. For the same compound, the TGI (UACC-62 melanoma) was greater than 100 µM, the TGI (DU-145 prostate) was greater than 100 µM and the TGI (LOX IMVI melanoma) was greater than 100 µM. The TGI (HS 578T breast) was greater than 100 µM, the TGI (RXF 393 renal) was 65.8 µM and the TGI (HT29 colon) was 67 µM. It also gave a TGI (OVCAR-8 ovarian) greater than 100 µM, a TGI (SR leukemia) of 61.5 µM and a TGI (NCI-H23 lung) of 95.1 µM. It also gave a TGI (PC-3 prostate) greater than 100 µM, a TGI (COLO 205 colon) of 64.7 µM and a TGI (SK-MEL-2 melanoma) of 48.9 µM. The TGI (OVCAR-3 ovarian) was greater than 100 µM, the TGI (RPMI-8226 leukemia) was greater than 100 µM and the TGI (EKVX NSCLC) was greater than 100 µM. For the same compound, the TGI (786-0 renal) was greater than 100 µM, the TGI (NCI/ADR-RES ovarian) was greater than 100 µM and the TGI (OVCAR-5 ovarian) was greater than 100 µM. It also gave a TGI (HOP-62 NSCLC) greater than 100 µM, a TGI (SNB-75 CNS) greater than 100 µM and a TGI (T-47D breast) greater than 100 µM. It also gave a TGI (BT-549 breast) of 88.8 µM, a TGI (HOP-92 NSCLC) of 96.4 µM and a TGI (A549 NSCLC) greater than 100 µM. The TGI (UO-31 renal) was 95.9 µM, the TGI (SK-OV-3 ovarian) was greater than 100 µM and the TGI (IGROV1 ovarian) was greater than 100 µM. It also gave a TGI (MDA-MB-435) greater than 100 µM, a TGI (CAKI-1 renal) greater than 100 µM and a TGI (A498 renal) of 95.8 µM. For the same compound, the TGI (HCC-2998 colon) was greater than 100 µM, the TGI (SK-MEL-28 melanoma) was greater than 100 µM and the TGI (NCI-H460 lung) was greater than 100 µM. For the same compound, the TGI (MDA-MB-231 breast) was greater than 100 µM, the TGI (MALME-3M melanoma) was greater than 100 µM and the TGI (SF-295 CNS) was greater than 100 µM. The TGI (SF-268 CNS) was greater than 100 µM, the TGI (U251 CNS) was greater than 100 µM and the TGI (NCI-H522 lung) was greater than 100 µM. The TGI (SNB-19 CNS) was greater than 100 µM, the TGI (MOLT-4 leukemia) was 70 µM and the TGI (SW-620 colon) was greater than 100 µM. For the same compound, the TGI (KM12 colon) was greater than 100 µM, the TGI (HCT-116 colon) was greater than 100 µM and the TGI (SK-MEL-5 melanoma) was 33.1 µM. The TGI (NCI-H226 lung) was greater than 100 µM.
